Measurements from ChEMBL document CHEMBL1201862, “PubChem BioAssay data set” (2004).
Active and inactive are the calls of the source.

Legend:
[1] = target: Heat shock protein HSP 90-alpha (Homo sapiens, UniProt P07900); experiment: Luminescence-based dose response biochemical high throughput screening assay for inhibitors of the Heat Shock Protein 90 (HSP90). [Related pubchem assays: 1831 (Summary AID.), 1846 (Confirmation screen.), 1789 (Primary screen.)]
Estrogen receptor beta = Estrogen receptor beta (Homo sapiens, UniProt Q92731);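 also: recombinant ER-beta bound to coactivator SRC1 peptide in presence of estradiol agonist; inhibitors block coactivator peptide binding and lower the FRET signal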
Transthyretin = Transthyretin (Homo sapiens, UniProt P02766); experiment: Luminescence-based cell-based high throughput dose response assay to identify activators of Transthyretin (TTR) transcription.; format: functional
[2] = Luminescence-based cell-based high throughput dose response assay to identify activators of the DAF-12 from the parasite S. stercoralis (ssDAF-12).; format: functional
[3] = target: T1, Nuclear receptor subfamily 0 group B member 1 (Homo sapiens, UniProt P51843); experiment: Luminescence-based cell-based high throughput dose response assay for inhibitors of the orphan nuclear receptor subfamily 0, group B, member 1 (DAX1; NR0B1). [Related pubchem assays (depositor defined):AID504766, AID504790]; format: functional
T1 sequence (P51843 whole entry): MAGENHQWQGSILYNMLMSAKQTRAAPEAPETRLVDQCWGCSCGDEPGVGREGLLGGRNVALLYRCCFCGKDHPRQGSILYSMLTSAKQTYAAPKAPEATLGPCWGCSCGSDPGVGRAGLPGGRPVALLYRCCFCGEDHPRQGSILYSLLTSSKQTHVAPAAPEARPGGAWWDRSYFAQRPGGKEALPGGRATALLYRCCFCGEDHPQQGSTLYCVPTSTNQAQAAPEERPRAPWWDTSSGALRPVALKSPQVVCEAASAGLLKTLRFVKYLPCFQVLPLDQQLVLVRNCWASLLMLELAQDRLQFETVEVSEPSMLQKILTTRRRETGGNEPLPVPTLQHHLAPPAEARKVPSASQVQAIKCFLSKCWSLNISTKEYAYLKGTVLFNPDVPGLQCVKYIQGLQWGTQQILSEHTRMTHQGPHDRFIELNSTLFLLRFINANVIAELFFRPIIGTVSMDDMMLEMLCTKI

HEK293 [4] = experiment: cells; format: functional, cell-based; conditions: Homo sapiens
[5] = target: T2, Oxysterols receptor LXR-beta (Homo sapiens, UniProt P55055); experiment: LXR agonists, Gal4 luciferase reporter, dose response, counter-screen for ssDAF-12 agonist project, cell-based, luminescence, HEK293, S. stercoralis campaign (AID 720737); format: functional; conditions: read-out: IC50 (the source's name)
T2 sequence (P55055 whole entry): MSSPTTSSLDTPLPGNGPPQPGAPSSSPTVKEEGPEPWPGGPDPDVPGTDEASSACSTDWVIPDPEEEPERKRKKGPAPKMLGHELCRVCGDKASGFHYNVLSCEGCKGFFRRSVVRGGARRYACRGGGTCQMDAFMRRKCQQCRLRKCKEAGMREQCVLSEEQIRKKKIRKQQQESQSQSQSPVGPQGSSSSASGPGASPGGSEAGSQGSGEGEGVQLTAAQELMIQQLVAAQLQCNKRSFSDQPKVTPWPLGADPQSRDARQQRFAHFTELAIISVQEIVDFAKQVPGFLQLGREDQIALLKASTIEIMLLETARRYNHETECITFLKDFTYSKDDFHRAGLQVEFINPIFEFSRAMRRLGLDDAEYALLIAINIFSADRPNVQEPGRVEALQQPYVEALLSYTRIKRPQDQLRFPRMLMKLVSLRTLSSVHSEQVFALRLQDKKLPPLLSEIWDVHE

[6] = CellTiter-Glo luminescence survival assay, SW480 colon tumor line, concentration-response curve, half-maximal inhibitory concentration (AID 1117338); format: functional
[7] = cytotoxicity toward HT-29 cells – cell-based, CellTiter-Glo luminescence, IC50, dose response (AID 1117330); format: functional
[8] = SNU-C1 cell viability reduction, dose response, CellTiter-Glo luminescence (AID 1117323); format: functional, cell-based
[9] = Reduced DLD-1 viability, concentration-response, CellTiter-Glo luminescence (AID 1117352); format: functional
[10] = RKO cell viability reduction, dose response, CellTiter-Glo luminescence (AID 1117322); format: functional
[11] = cytotoxicity toward Colo320 cells – cell-based, CellTiter-Glo luminescence, IC50, dose response (AID 1117334); format: functional; conditions: COLO 320
[12] = cytotoxicity toward HCT116 cells – cell-based, CellTiter-Glo luminescence, IC50, dose response (AID 1117332); format: functional; conditions: HCT-116
[13] = P. falciparum Dd2 growth inhibitors, dose response, SYBR Green, cherry-picked samples (AID 1159567); format: functional, cell-based
[14] = growth inhibition of PfATP4-mutant resistant parasites – NITD609-resistant line, SYBR Green, dry powder, dose response (AID 1159571); format: functional, cell-based;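 also: parasites synchronized at ring stage by sorbitol before testing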
[15] = Dd2 malaria parasite growth inhibition potency – SYBR Green, dry powder samples, dose response (AID 1159566); format: functional, cell-based;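 also: potency for growth inhibition with lower SYBR green DNA signal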
[16] = toxicity to human HepG2 hepatoma cells – cell-based, plate reader, dry powder samples, cytotoxicity control, dose response (AID 1159569); format: functional;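 also: inhibitor potency with signal falling toward the positive control level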
[17] = growth inhibition of yeast DHODH-expressing 3D7 parasites – SYBR Green, dry powder samples, dose response (AID 1159570); format: functional, cell-based;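 also: parasite growth measured after 72 hours of compound exposure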
[18] = intracellular Trypanosoma cruzi inhibitors in host cells – cell-based, plate reader, cherry-pick samples, set 3, dose response (AID 651818); format: functional;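 also: compounds incubated with infected cells for about four days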
[19] = reduced cellular PGC1a acetyl-lysine signal – cell-based, cherry-picked samples, dose response (AID 720514); format: functional;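 also: potency may reflect raised or lowered acetylation signal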
HEK293 [20] = experiment: viability loss in HEK293T cells – cell-based, ATP luminescence, cherry-pick samples, cytotoxicity control, dose response (AID 687005); format: functional; conditions: Homo sapiens;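 also: cells exposed to compound for 48 hours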
[21] = HEK293 Cytotoxicity Assay Measured in Cell-Based System Using Plate Reader - 7071-01_Inhibitor_Dose_CherryPick_Activity_Set2.; format: functional
HeLa = experiment: viability loss in HeLa cells – cell-based, ATP luminescence, cherry-pick samples, cytotoxicity control, dose response (AID 687004); format: functional; conditions: Homo sapiens
[22] = target: Endoplasmic reticulum aminopeptidase 1 (Homo sapiens, UniProt Q9NZ08); experiment: inhibition of human ERAP1 enzyme activity – biochemical, cherry-pick, set 2, plate reader, dose response (AID 743314)
Sequence of Endoplasmic reticulum aminopeptidase 1 (Q9NZ08 whole entry): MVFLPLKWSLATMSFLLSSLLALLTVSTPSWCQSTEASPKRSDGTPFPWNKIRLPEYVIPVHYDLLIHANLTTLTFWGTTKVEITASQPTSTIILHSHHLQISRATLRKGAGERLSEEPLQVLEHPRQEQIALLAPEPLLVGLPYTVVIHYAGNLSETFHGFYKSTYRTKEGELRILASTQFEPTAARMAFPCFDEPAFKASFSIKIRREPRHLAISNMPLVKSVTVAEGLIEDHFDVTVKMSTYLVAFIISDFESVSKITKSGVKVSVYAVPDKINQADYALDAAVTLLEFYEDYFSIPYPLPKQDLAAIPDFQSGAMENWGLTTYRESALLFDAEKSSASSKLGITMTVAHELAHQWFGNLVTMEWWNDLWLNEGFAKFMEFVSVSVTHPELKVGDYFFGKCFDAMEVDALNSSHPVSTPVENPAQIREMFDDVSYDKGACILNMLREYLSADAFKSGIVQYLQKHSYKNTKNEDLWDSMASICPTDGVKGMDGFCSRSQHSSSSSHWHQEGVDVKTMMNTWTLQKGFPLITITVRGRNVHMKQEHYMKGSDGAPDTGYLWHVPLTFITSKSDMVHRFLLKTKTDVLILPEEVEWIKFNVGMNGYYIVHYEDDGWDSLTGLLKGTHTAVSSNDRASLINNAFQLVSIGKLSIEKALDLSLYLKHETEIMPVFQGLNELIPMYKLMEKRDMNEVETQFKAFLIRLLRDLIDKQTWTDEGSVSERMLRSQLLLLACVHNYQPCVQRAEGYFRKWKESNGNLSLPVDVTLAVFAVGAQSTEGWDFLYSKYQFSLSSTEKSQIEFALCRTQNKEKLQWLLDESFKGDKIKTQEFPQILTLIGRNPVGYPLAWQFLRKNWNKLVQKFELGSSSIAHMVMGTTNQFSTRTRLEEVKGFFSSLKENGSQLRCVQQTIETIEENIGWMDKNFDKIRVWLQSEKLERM

Sequence of Estrogen receptor beta (Q92731 whole entry): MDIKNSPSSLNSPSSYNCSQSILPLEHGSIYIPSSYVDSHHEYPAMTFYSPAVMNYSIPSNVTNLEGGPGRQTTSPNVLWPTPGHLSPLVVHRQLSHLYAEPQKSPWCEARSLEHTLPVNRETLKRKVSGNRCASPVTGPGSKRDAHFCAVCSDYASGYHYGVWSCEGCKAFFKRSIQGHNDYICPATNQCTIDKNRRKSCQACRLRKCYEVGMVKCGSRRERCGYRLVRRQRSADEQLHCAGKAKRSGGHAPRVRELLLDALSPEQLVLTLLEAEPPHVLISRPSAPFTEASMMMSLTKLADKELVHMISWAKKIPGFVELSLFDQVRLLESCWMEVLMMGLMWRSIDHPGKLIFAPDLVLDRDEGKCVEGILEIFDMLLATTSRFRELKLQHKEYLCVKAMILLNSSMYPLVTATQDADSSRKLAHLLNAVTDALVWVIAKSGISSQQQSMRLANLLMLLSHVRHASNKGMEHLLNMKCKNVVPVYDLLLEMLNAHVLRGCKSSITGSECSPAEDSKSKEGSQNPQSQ

CCCc1ccc(OCc2ccc(C(=O)N3CCSCC3)o2)cc1
IC50 [1]: 904 nM (active)

O=C(CSc1ncccc1C(=O)O)c1ccc2ccccc2c1
IC50 [1]: 391 nM (active)

CCOc1ccccc1-c1nc(-c2cc3ccccc3nc2OC)no1
IC50 (Estrogen receptor beta): > 50 µM (not active)

Cn1cc(Br)c(C(=O)N2CCc3ccccc32)n1
EC50 (Transthyretin): > 167 µM (inactive)

C/C(=N\Nc1cccc2cccnc12)c1ccccc1O
IC50 [2]: > 67.5 µM (inactive) | IC50 [3]: > 67.5 µM (inactive) | IC50 (HEK293 [4]): > 67.5 µM (inactive) | EC50 [5]: > 67.5 µM (inactive)

C/C(=C(/OCCOc1ccc(Cl)cc1)c1ccc(Cl)cc1Cl)n1ccnc1 [OMOCONAZOLE]
IC50 [6]: 8.46 µM (inactive) | IC50 [7]: > 6.67 µM (inactive) | IC50 [8]: 2.35 µM (active) | IC50 [9]: 4.18 µM (active) | IC50 [10]: > 6.67 µM (inactive) | IC50 [11]: 5.86 µM (inactive) | IC50 [12]: > 6.67 µM (inactive)

COc1ccc2c3c([nH]c2c1)[C@@H](CO)N(C(=O)CN(C)C)CC31CCN(CC2CCCCC2)CC1
AC50 [13]: 904 nM (active) | AC50 [14]: 731 nM (active) | AC50 [15]: 361 nM (active) | AC50 [16]: 23.7 µM (active) | AC50 [17]: 137 nM (active)

C[C@H](CO)N1C[C@H](C)[C@H](CN(C)Cc2ccc(Oc3ccccc3)cc2)Oc2c(NC(=O)Nc3ccc4c(c3)OCO4)cccc2C1=O
AC50 [18]: 3.78 µM (active) | AC50 [19]: 16.9 µM (active)

CO[C@@H](CN(C)Cc1cc(F)ccc1F)[C@@H](C)CN([C@H](C)CO)S(=O)(=O)c1ccc(F)cc1
AC50 (HEK293 [20]): 28.4 µM (active) | AC50 [21]: 28.4 µM (active) | AC50 (HeLa): > 52 µM (inactive)

COc1cccc(S(=O)(=O)N(C)C[C@@H]2Oc3ncccc3C(=O)N([C@H](C)CO)C[C@@H]2C)c1
AC50 [22]: 9.81 µM (active)
